Results published in US10767162B2, “Methods for differentiation” (PRESIDENT AND FELLOWS OF HARVARD COLLEGE, priority 2014, dated 2020).

Test system: ES cell line that constitutively over-expressed the transcription factor MyoD
Format: cell-based
Conditions: for effect on Pax3 expression: continuous treatment during differentiation; for effect on MyoG expression under low serum conditions: low serum (2% HS+Insulin); for effect on MyoG expression under low serum conditions / effect on MyoG (myogenin) expression: MyoG measured on Day 7; for effect on MyoG (myogenin) expression: continuous treatment for 7 days, high or low serum
Protocol: Time courses of differentiation were run for 7 days similarly to the previous growth factor withdrawal experiments. MyoD was induced at Day −1, and LIF was removed at Day 0. Cells were kept in either high serum (15% FBS) or low serum (2% HS+Insulin) media throughout the time course. Drug treatments were applied continuously at the designated concentrations for the entire duration of the time course, with daily media change. mRNA expression levels were measured by qRT-PCR. […] All measurements are relative to a DMSO control for the specific condition (i.e. low serum values are still higher than in high serum). L=lethal; drug had strong anti-survival effects so no data was collected. Error bars indicate S.E.M. (n=2).
Perturbations were made both under high and low serum conditions and were extended throughout the time course of differentiation. LY294002 is a potent broad inhibitor of phosphoinositide-3-kinases (PI3Ks), and when applied continuously to ES cells over 7 days induced a significant 2.7 fold increase in Pax3 mRNA expression (FIG. 4). This increase was observed both in high serum and low serum media. […] Myc drives cell cycle progression and growth. […] Both are indirect inhibitors of Myc activity; as yet there are no direct pharmacologic inhibitors of the Myc protein.
The effects of inhibiting cyclin-dependent kinases (kinases that are more centrally involved in cell cycle control) and MAP kinase, which very often is involved in cell cycle regulation, were also examined. Roscovitine is a broad CDK inhibitor that blocks a number of family members, including CDK1, CDK2, and CDK5. After continuous treatment throughout the 7 days of differentiation in the time course, roscovitine had no effect on Pax3 expression (FIG. 4). It also had little effect on the later expression of MyoG, either under high or low serum conditions. […] However, the MAPK inhibitor PD98059, which blocks MEK1/2, had no effect on Pax3 and induced MyoG only under low serum conditions (FIG. 4 bottom). The protein CDK inhibitor p21, which is much more specific than roscovitine, blocks CDK2 and prevents entry into S-phase. In ES cells p21 is expressed at low levels, but gradually increases during the course of ES cell differentiation (13). An mES cell line that constitutively overexpresses the p21 protein bicistronically with a mCherry tag (fused to the C-terminus with a 2A peptide) was developed. […] Thus, within the set of cell cycle inhibitors examined, stage-specific and condition-specific effects on gene expression were observed.
ES culture and differentiation. The ES cells contain MyoD (and associated puromycin resistance marker) expressed from a EF1alpha promoter (5). MyoD could be expressed once a loxP segment inserted between the promoter and transgene was excised by a cre recombinase fused to the estrogen receptor. ES cells were cultured in LIF and standard conditions containing 15% FBS, non-essential amino acids, L-glutamine, penicillin/streptomycin, and beta-mercaptoethanol. To induce MyoD, cells were treated for 24 hrs with 1 μM 4OHT (Sigma) in ES media. Reduced serum media consisted of DMEM and 2% horse serum (Invitrogen) plus 10 μg/ml insulin (to maintain cell survival)(Sigma) with sodium pyruvate and penicillin/streptomycin. During differentiation, cells were treated with 1 μg/ml puromycin continuously to select for cells which maintained MyoD expression. N2B27 components/supplements and Knock-out serum replacement were purchased from Invitrogen. LIF was used at a 1000 U/ml and Bmp4 at 10 ng/ml.
Drugs. The PI3K inhibitor LY294002, Roscovitine, the MEK1/2 inhibitor PD98059, and 10058-F4 were purchased from Sigma. The E2F inhibitor HLM006474 was purchased from Millipore. PD0332991 was purchased from SelleckChem. JQ1 was purchased from ApexBio.
RNA isolation and RT-PCR. RNA was isolated using RNAeasy plus kit (Qiagen). Reverse transcription was performed using iScript™ cDNA synthesis (Bio-rad). […]

[1] = Pax3 measured on Day 3, relative to DMSO control

Molecule	effect on Pax3 expression [1]	effect on MyoG expression under low serum conditions	effect on MyoG (myogenin) expression	cell survival on continuing treatment	increase in Pax3 mRNA expression (applied continuously over 7 days, observed both in high serum and low serum media, relative to DMSO control, Pax3 measured on Day 3)
COc1cccc(-c2cc(=O)c3ccccc3o2)c1N [PD98059]	no effect	induced MyoG			
CC(=O)c1c(C)c2cnc(Nc3ccc(N4CCNCC4)cn3)nc2n(C2CCCC2)c1=O [PD0332991]	lack of effect		lack of effect		
CCOc1ccc(C(Nc2ccccn2)c2ccc3ccc(C)nc3c2O)cc1C (stereo not shown) [HLM006474]	induced Pax3		suppressed MyoG expression		
CC[C@H](CO)Nc1nc(NCc2ccccc2)c2ncn(C(C)C)c2n1 [roscovitine, Roscovitine]	no effect		little effect		
O=c1cc(N2CCOCC2)oc2c(-c3ccccc3)cccc12 [LY294002]				cell death	2.7 fold
CCc1ccc(/C=C2/SC(=S)NC2=O)cc1 [10058-F4]	suppressive effects		suppressive effects		
Cc1sc2c(c1C)C(c1ccc(Cl)cc1)=N[C@@H](CC(=O)OC(C)(C)C)c1nnc(C)n1-2 [JQ1]	an increase in Pax3 early expression		later suppression of MyoG expression		
p21: protein CDK inhibitor, blocks CDK2; constitutively overexpressed in an mES cell line with a mCherry tag (protein, UniProt P39689 2-159, looked up, mCherry tag) Cyclin-dependent kinase …: SNPGDVRPVPHRSKVCRCLFGPVDSEQLRRDCDALMAGCLQEARERWNFDFVTETPLEGNFVWERVRSLGLPKVYLSPGSRSRDDLGGDKRPSTSSALLQGPAPEDHVALSLSCTLVSERPEDSPGGPGTSQGRKRRQTSLTDFYHSKRRLVFCKRKP	no effect	upregulated MyoG			
